What was measured:
RAC1 G30S = target: T1, RAC1 G30S (Homo sapiens, UniProt P63000, G30S); assay: GEF-stimulated nucleotide exchange; assay type: biochemical; parameters: dose or concentration left out as unconfirmed
T1 construct: Full-length RAC1G30S was obtained by directed mutagenesis on the pET-3a-RAC1HisCter plasmid; 6xHis (C); made in house
Description: Figure 4 A41 selectively impairs RAC protein activation (A) Representative surface plasmon resonance (SPR) sensograms of binding of immobilized RHOA or CDC42 with indicated increasing concentrations of A41 (N > 3). (B) Effect of A41 on GEF-stimulated RAC2, RHOG, RHOA, and CDC42 nucleotide exchange. […] Kobs is expressed as mean ± SEM. ∗p < 0.001 vs. control. (C) Effect of A41 on RAC1 G30S activation. […] Data are expressed as mean ± SEM. (D) Immunoblot analysis and associated quantification of RAC-GTP level and total RAC expression in NIH-3T3 fibroblasts expressing RAC wild-type (RAC1 WT) or RAC1 oncomutants (RAC1 P29S and RAC1b) in the absence (Ctrl) and presence of A41 (10 μM). RAC activation was measured as the ratio of RAC-GTP to total RAC and expressed relative to Ctrl condition. Data are presented as mean ± SEM. ∗∗∗p < 0.001 vs. controls.
Full-length RAC1 carrying a 6xHis tag in C-terminus was purified as previously described.[64] […] Specific exchange activity toward RHOA determined by fluorescence kinetics is 0.04 s^−1M^−1.
Nucleotide exchange kinetics were measured by recording the increase in fluorescence following the association of mant-GTP on GDP-bound RHO protein or the decay in fluorescence following the dissociation of mant-GDP pre-loaded onto the RHO protein (λEx = 360 nm, λEm = 440 nm) as previously described.[39] […]

4T1 tumor cells = assay: Syngeneic breast cancer model; assay type: in vivo, mouse; settings: BALB/c mice
Experimental: Figure 6 A41 decreases metastasis of TNBC cells in vivo (A) Representative images of luciferase bioluminescence intensities (BLI) in whole body, legs, and ovaries/uterus 4 weeks after resection of MD1-MB-468 Luc tumor in NMRI nude mice not treated (control) and treated with A41 (25 mg/kg/day, intraperitoneally for 4 weeks). (B) Metastasis frequency quantification based on ex vivo BLI measurements in indicated organs from control (black bars) and A41-treated mice 4 weeks after tumor resection (white bars) (N = 10–15 mice; ∗p < 0.05 vs. controls). (C) BLI quantification in legs and ovaries/uterus from control (black squares) and A41-treated (white squares) NMRI nude mice 4 weeks after tumor resection (N = 10–15 mice; ∗p < 0.05 vs. controls). (D) Cumulative proportion of immunocompetent control (red) and A41-treated mice (blue) displaying regrowth of the primary tumor after its resection. (E) Metastasis frequency quantified from ex vivo BLI measurements in leg bones, lungs, kidneys, and ovaries/uterus from immunocompetent control (black bar) and A41-treated (white bar) mice (N = 10 mice; ∗p < 0.05 vs. control). (F) Survival curve of immunocompetent control (red) and A41-treated mice (blue) after primary tumor resection (day 0).
To circumvent this limitation and evaluate if the immune system could affect the anti-metastatic property of A41, we evaluated its effect in a syngeneic model. We injected murine 4T1 tumor cells into the mammary fat pad of immunocompetent BALB/c mice.

[1] = target: Peptidase, Angiotensin Converting Enzyme (Oryctolagus cuniculus, UniProt P12822); assay: Safety screen; assay type: biochemical, rabbit
Sequence of Peptidase, Angiotensin Converting Enzyme (P12822 34-1310): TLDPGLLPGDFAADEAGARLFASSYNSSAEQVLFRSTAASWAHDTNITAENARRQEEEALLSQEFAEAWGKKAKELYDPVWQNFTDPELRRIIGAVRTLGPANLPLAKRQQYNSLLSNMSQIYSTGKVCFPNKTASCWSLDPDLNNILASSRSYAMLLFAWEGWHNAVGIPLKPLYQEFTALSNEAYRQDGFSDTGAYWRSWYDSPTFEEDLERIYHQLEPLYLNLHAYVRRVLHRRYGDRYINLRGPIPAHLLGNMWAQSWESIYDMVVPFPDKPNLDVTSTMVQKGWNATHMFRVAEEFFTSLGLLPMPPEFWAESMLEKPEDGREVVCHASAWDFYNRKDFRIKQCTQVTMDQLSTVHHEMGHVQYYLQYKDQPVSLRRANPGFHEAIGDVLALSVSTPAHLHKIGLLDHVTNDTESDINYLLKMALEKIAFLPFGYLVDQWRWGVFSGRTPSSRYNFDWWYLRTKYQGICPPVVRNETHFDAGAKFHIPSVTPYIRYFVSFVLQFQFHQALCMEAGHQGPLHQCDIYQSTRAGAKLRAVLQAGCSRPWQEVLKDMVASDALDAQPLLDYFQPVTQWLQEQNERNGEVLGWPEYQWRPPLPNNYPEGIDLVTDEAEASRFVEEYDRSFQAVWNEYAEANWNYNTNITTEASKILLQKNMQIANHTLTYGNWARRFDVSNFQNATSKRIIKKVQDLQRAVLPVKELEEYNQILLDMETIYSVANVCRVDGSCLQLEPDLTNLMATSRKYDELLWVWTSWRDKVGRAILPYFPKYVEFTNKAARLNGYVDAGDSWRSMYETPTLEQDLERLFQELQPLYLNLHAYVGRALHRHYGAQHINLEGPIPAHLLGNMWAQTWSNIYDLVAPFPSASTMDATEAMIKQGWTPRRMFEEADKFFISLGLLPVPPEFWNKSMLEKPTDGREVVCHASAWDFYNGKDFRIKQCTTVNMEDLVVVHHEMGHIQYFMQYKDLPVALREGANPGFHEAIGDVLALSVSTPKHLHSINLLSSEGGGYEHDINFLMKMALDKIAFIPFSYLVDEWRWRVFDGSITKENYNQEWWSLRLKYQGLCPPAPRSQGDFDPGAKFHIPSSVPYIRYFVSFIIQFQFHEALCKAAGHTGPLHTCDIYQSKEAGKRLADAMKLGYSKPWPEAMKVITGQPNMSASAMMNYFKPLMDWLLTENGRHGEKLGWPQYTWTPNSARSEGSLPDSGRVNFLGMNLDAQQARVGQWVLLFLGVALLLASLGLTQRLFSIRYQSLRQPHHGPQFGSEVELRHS
Experimental: (§1) Blood cell counts, kinase profiler, safety screen, bacterial cytotoxicity, Ames, micronucleus assays were performed by the company Eurofins (France).

Melanocortin MC4 = Melanocortin MC4 (Homo sapiens, UniProt P32245); assay: Safety screen; assay type: binding
Sequence of Melanocortin MC4 (P32245 whole entry): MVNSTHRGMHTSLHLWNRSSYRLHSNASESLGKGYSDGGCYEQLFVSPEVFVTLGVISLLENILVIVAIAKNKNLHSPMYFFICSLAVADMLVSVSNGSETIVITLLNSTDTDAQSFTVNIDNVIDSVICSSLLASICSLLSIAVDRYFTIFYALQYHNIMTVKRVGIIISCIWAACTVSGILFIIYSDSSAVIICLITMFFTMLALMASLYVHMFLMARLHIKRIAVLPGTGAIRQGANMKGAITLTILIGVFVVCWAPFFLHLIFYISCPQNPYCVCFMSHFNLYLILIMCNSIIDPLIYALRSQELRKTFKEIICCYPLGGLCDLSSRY
Experimental: as §1

CK1α(h) = CK1α(h) (Homo sapiens, UniProt P48729); assay: Kinase Profiler; assay type: biochemical
Sequence of CK1α(h) (P48729 whole entry): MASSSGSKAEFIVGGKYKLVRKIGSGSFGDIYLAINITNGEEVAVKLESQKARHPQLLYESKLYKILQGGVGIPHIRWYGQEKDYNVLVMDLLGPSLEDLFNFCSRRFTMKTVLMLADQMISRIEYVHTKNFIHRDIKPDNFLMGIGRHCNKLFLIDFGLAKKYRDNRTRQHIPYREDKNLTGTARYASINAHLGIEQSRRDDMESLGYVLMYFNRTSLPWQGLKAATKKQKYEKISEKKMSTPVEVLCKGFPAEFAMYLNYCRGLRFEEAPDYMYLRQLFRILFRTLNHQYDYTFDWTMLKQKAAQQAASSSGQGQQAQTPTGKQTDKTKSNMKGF
Experimental: (§2) Blood cell counts, kinase profiler, safety screen, bacterial cytotoxicity, Ames, micronucleus assays were performed by the company Eurofins (France). The kinase profiler was performed by the company Eurofins (Discovery, Panlab and Cerep).

DYRK3(h) = DYRK3(h) (Homo sapiens, UniProt O43781); assay: Kinase Profiler; assay type: biochemical
Sequence of DYRK3(h) (O43781 whole entry): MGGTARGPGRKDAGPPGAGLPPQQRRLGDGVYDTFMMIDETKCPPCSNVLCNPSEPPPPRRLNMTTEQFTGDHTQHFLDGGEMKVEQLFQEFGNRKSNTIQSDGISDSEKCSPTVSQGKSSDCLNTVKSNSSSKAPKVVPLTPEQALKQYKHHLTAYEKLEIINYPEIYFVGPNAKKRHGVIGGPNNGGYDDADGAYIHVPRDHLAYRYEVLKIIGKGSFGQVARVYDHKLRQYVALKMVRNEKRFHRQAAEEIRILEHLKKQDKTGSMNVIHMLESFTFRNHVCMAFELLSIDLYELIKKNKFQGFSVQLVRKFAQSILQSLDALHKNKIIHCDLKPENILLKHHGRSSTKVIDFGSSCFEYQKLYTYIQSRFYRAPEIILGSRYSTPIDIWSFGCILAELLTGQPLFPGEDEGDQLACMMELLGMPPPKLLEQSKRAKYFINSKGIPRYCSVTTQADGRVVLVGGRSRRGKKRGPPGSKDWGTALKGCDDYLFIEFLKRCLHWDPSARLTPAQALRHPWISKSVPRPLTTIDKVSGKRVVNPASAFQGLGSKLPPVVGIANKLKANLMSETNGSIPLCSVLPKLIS
Experimental: (§3) The kinase profiler was performed by the company Eurofins (Discovery, Panlab and Cerep).

MKK4(m) = MKK4(m) (Mus musculus, UniProt P47809); assay: Kinase Profiler; assay type: biochemical
Sequence of MKK4(m) (P47809 2-397 limits assumed): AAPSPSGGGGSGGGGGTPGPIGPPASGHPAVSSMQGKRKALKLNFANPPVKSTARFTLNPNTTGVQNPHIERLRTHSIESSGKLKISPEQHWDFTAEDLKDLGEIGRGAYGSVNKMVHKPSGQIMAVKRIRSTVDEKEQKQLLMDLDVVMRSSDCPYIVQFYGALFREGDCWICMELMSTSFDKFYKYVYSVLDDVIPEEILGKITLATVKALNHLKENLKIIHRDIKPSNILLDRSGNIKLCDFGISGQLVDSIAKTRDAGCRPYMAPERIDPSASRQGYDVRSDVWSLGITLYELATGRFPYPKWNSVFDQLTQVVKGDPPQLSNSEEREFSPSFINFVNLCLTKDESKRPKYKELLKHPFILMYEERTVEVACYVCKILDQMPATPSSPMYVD
Experimental: as §3

TAO1(h) = TAO1(h) (Homo sapiens, UniProt Q7L7X3); assay: Kinase Profiler; assay type: biochemical
Sequence of TAO1(h) (Q7L7X3 whole entry): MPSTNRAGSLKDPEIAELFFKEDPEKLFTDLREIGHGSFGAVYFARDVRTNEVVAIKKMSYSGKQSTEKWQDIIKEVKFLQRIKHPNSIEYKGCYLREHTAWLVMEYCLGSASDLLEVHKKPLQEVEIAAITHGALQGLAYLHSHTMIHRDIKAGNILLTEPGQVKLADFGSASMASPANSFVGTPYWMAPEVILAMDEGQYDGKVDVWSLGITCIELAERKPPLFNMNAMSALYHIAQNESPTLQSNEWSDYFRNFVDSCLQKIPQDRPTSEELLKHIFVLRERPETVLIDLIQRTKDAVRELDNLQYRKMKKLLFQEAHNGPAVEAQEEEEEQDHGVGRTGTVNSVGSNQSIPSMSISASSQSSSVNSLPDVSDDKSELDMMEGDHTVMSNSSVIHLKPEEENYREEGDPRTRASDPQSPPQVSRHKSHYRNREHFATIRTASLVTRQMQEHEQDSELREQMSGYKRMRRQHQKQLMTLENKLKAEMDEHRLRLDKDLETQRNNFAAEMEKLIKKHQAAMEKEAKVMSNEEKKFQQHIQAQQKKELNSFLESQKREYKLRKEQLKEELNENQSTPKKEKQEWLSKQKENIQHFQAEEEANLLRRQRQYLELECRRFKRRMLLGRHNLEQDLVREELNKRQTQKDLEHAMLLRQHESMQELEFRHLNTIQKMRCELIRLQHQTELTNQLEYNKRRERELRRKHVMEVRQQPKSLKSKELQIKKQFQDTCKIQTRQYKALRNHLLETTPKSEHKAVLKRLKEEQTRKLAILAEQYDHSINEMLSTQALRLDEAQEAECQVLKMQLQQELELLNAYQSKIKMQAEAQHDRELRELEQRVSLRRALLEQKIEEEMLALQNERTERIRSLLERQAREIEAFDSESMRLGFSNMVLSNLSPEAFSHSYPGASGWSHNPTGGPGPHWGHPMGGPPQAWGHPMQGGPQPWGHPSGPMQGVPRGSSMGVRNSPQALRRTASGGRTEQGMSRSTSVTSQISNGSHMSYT
Experimental: as §2

TAO2(h) = TAO2(h) (Homo sapiens, UniProt Q9UL54); assay: Kinase Profiler; assay type: biochemical
Experimental: as §2

Structure (SMILES): COc1ccc(OC)c(NS(=O)(=O)c2ccc(NC(=O)CCSc3ccc(C)cc3)cc2)c1 [Compound A41]
- TRIO-induced nucleotide exchange on RAC1 G30S (RAC1 G30S): not able to inhibit
- frequency of primary tumor re-growth (mice with regrowth) (4T1 tumor cells; 4 weeks post resection): 40%
- survival rate (4T1 tumor cells; 4 weeks post resection): 80%
- metastasis frequency (4T1 tumor cells; after primary tumor resection): significantly reduced metastasis frequency
- % inh. [1]: 11%
- % inh. (Melanocortin MC4): 8%
- Activity(%) (CK1α(h)): 102%
- Activity(%) (DYRK3(h)): 112%
- Activity(%) (MKK4(m)): 109%
- Activity(%) (TAO1(h)): 118%
- Activity(%) (TAO2(h)): 108%
